According to patent publication US4708962A, “Antiviral and antitumor cyclohexadienone compositions” (Harbor Branch Oceanographic Institution, Inc., priority 1985, dated 1987):
Converted amounts (≈) assume the structure as drawn. Where two headings read alike, the source gives them in different places.

Tests used:
[1] = Stability at room temperature; format: physicochemical
[2] = tested on: P-388 murine leukemia cells; assay: Cytotoxicity assay, P388 mouse leukemia cells; format: cell-based
Description: (§1) The following assay method was utilized to illustrate the antitumor effectiveness of compounds 1-7.
(§2) L1210 And P388 MOUSE LEUKEMIA CELL; ILEOCECAL ADENO CARCINOMA HCT-8; AND LUNG CARCINOMA A549; CYTOXICITY ASSAY 24-WELL PLATE SCREENING ASSAY AND TUBE ASSAY PROTOCOL
(§3) Media--Dulbeccos with glucose and pyruvate (Biologos, Inc) with 10% horse serum, (Biologos, Inc) and 1.0 ug/ml gentamicin (Gibco).
(§4) Cells--L1210 and P-388 mouse leukemia cells (American Type Culture Collection) in media at a concentration of 5×10^4 cells/ml. Sterile 24-well culture plates (Nunc) for screening or 12×75 mm glass culture tubes (Becton-Dickinson) for tube assay. Microdispenser with 1 to 5 ul increments (Drummond Scientific Co. Broomall PA).
(§5) Finnpipette with 5 to 50 ul increments and Finnpipette with 50 to 200 ul increments.
(§6) 1. A sample of the composition to be assayed is added to each well or tube in an amount of from 200 ug/ml and 100 ug/ml for screening. For DDC of known active compounds use log concentrations from 100 ug/ml to 0.01 ug/ml for range-finding assay; when range has been determined, use five concentrations between highest and lowest active concentrations.
(§7) 2. Add 2.0 ml of 5×10^4 cell suspension in media to each well or tube. Tubes are loosely covered with parafilm.
(§8) 3. Incubate in 5% CO2 incubator 48 hours.
(§9) 4. Visually read plates with inverted microscope, comparing with solvent control. Assign activity as follows:
(§10) 1+=75-89% of control growth
(§11) 2+=50-74% of control growth
(§12) 3+=25-49% of control growth
(§13) 4+=<25% of control growth
(§14) Repeat all positive samples using tube assay.
(§15) 5. For Tube assays--Mix tube well on vortex and remove 0.5 ml aliquot and add to 9.5 ml nf diluent fluid (Isoton-Coulter) in Accuvette (Coulter) and mix well by inversion immediately before counting, taking care not to produce excessive bubbles. Count on Coulter Counter (Counter is set to count 0.5 ml of the solution, therefore counts may be converted to cell/ml in original assay tube by multiplying count by 40.
(§16) Positive control--Vinblastine or Vincristine in aqueous solution.

[3] = tested on: L-1210 murine leukemia cells; assay: Cytotoxicity assay, L1210 mouse leukemia cells; format: cell-based; details: for viability at 200 µg/mL: in vitro, at 200 micrograms per milliliter, read-out: survival, L-1210
Description: as §1, §2, §3, §4, §5, §6, §7, §8, §9, §10, §11, §12, §13, §14, §15, §16

lung carcinoma A549 = assay: Cytotoxicity assay, lung carcinoma A549; format: cell-based; details: Homo sapiens, 48 h, summary table, read-out: Test Cells at (ID 50), A549
Description: as §1, §2, §3, §5, §6, §7, §8, §9, §10, §11, §12, §13, §14, §15, §16

[4] = tested on: ileocecal adenocarcinoma HCT-8; assay: Cytotoxicity assay, ileocecal adenocarcinoma HCT-8; format: cell-based; details: Homo sapiens, 48 h, summary table, read-out: Test Cells at (ID 50), HCT-8
Description: as §1, §2, §3, §5, §6, §7, §8, §9, §10, §11, §12, §13, §14, §15, §16

HSV-I = assay: Antiviral assay: inhibition of HSV-I plaque formation (disks pushed into methyl cellulose overlay); format: cell-based, herpes simplex-I; details: for 25 to 80 plaque forming units of virus cells
Description: The following assay method was utilized to illustrate the antiviral effectiveness of compound (1). (1) Remove 75 cm^2 culture flasks from incubator (these were plated the previous week). (2) Aspirate medium. (3) Wash with 10 ml PBSA or Puck's Saline. (4) Aspirate. (5) Wash a second time with 10 ml PBSA or Puck's Saline. (6) Aspirate. (7) Add 2 ml trypsin/EDTA. Incubate until cells detach (10-20 min). (8) Once detached, shake vigorously and immediately add 8 ml medium and shake again. (9) Count cells. (To 0.5 ml cell suspension add 0.1 ml trypan blue. Wait 5-10 minutes. Count 4 corner squares and middle square of 5×5 array in hemocytometer. Blue cells are dead. Total count per 10 ml in culture flask=# live cells×6×10^5). (10) Maintain cell line by adding 3×10^6 cells to another 75 cm^2 culture flask. Bring to 30 ml with fresh medium. (11) For assay, add 1×10^6 cells to each well (6 wells per culture dish). Bring each well to 2 ml with fresh medium. (12) Incubate overnight at 37° C. (1) Aspirate medium. […] (3) Incubate […] with a small amount of shaking. (4) Add 2 ml MC-4000 to each well. (5) Place disks on surface and push through (1 mg/disc, 0.5 mg/disc, 0.25 mg/disc, etc. for crude extracts). (6) Incubate 48 hr. (making sure dishes remain level). (1) Add 2 ml neutral red medium. (2) Incubate overnight. […]

cells = assay: Zone of cytotoxicity in the antiviral disk assay; format: cell-based; details: read at Day 5, disk assay
Description: The following assay method was utilized to illustrate the antiviral effectiveness of compound (1).
(8) Once detached, shake vigorously and immediately add 8 ml medium and shake again.
(9) Count cells. (To 0.5 ml cell suspension add 0.1 ml trypan blue. Wait 5-10 minutes. Count 4 corner squares and middle square of 5×5 array in hemocytometer. Blue cells are dead. Total count per 10 ml in culture
(11) For assay, add 1×10^6 cells to each well (6 wells per culture dish). Bring each well to 2 ml with fresh medium.
(5) Place disks on surface and push through (1 mg/disc, 0.5 mg/disc, 0.25 mg/disc, etc. for crude extracts).
(6) Incubate 48 hr. (making sure dishes remain level).
(1) Add 2 ml neutral red medium.

[5] = P-388, summary table, read-out: Test Cells at (ID 50), P-388
[6] = in vitro, P-388 murine leukemia cells, read-out: estimated ID50 (dose which kills 50% of the cells), P-388

| Structure (SMILES) | decomposition [1] | IC50 [2, 5] | IC50 [2, 6] | IC50 ([3]; L-1210 murine leukemia cells, read-out: estimated ID50, L-1210) | viability at 200 µg/mL [3] | IC50 (lung carcinoma A549) | IC50 [4] | minimal effective amounts (antiviral activity) (HSV-I) | zone of cytotoxicity as the diameter (cells) |
| --- | --- | --- | --- | --- | --- | --- | --- | --- | --- |
| CC1(C)C=CC(=O)C(C(Cl)CO)=C1 (stereo not drawn) [Formula VIII] | decompose at room temperature in two hours | – | – | – | – | – | – | – | – |
| CC1(C)C=CC(=O)C(C2CO2)=C1 (stereo not drawn) [Compound 5] | – | 10 µg/mL (≈ 60.9 µM) | 5 µg/mL (≈ 30.4 µM) | 0.7 µg/mL (≈ 4.26 µM) | 25% | 1 µg/mL (≈ 6.09 µM) | 5 µg/mL (≈ 30.4 µM) | – | – |
| CC1(C)C=CC(=O)C(C(Cl)CBr)=C1 (stereo not drawn) [Composition 6] | – | 0.5 µg/mL (≈ 1.9 µM) | – | – | – | 5 µg/mL (≈ 19 µM) | 5 µg/mL (≈ 19 µM) | – | – |
| CC(=O)OCC(Cl)C1=CC(C)(C)C=CC1=O (stereo not drawn) [Compound 1] | – | 5 µg/mL (≈ 20.6 µM) | 37 µg/mL (≈ 152 µM) | – | – | 20 µg/mL (≈ 82.4 µM) | 10 µg/mL (≈ 41.2 µM) | 50 to 100 micrograms | 16 mm |
| C=C(OC)C1=CC(C)(C)C=CC1=O [Compound 2] | – | 5 µg/mL (≈ 28.1 µM) | – | – | 15% | 30 µg/mL (≈ 168 µM) | 20 µg/mL (≈ 112 µM) | – | – |
| CC(=O)C1=CC(C)(C)C=CC1=O [Compound 4] | – | 5 µg/mL (≈ 30.4 µM) | 70 µg/mL (≈ 426 µM) | – | 41% | 5 µg/mL (≈ 30.4 µM) | 5 µg/mL (≈ 30.4 µM) | – | – |
| COC(C)(OC)C1=CC(C)(C)C=CC1=O [Compound 3] | – | 10 µg/mL (≈ 47.6 µM) | 70 µg/mL (≈ 333 µM) | – | 17% | 30 µg/mL (≈ 143 µM) | 30 µg/mL (≈ 143 µM) | – | – |
